Results reported in patent publication US20250042974A1, “LIPID MEDIATOR CHAPERONE AND USES THEREOF” (The Children's Medical Center Corporation, priority 2021, published 2025).

Columns and labels:
[1] = tested on: human platelets; test: Human platelet aggregation in vitro (light transmission aggregometry); assay type: cell-based; settings: SFLLRN peptide-induced, 2-20 nM drug, N=2, read-out: EC50 of inhibition of platelet aggregation
Description: Whole blood samples were drawn from healthy donors in the presence of 10% sodium citrate (Sigma, 5577-50 ml) and were spun at 1000 rpm using Beckman centrifuge (GS-6K) for 20 min. The top Platelet-rich Plasma (PRP) layer was collected resting at a 37° C. water bath for 30 minutes. PRP was diluted with the one-fifth volume of the acid-citrate-dextrose buffer, Prostaglandin E1 (PGE1) was added to a final concentration of 0.15 μM. The mixture was spun in a conical-bottom tube at 2000 g for 10 min, and the platelet pellet was collected and suspended in pre-warmed HEPES-Tyrode-Glucose Buffer (HTG). The platelet concentration was determined and adjusted to ˜2.5×10^5/μL with HTG on a Hematology cell counter System (Drew Scientific, 850FS).
Light Transmission Aggregometry was used to evaluate the platelet response to agonists and antagonists. In a 4-channel aggregometer (Platelet ionized calcium aggregometer, Chronolog Corp Model 660), human platelets were stirred in a cuvette at 37° C. […] Data were analyzed using AGGRO/LINK software package Ver 5.2.5 and Microsoft office professional plus 2013.

[2] = tested on: HUVEC; test: TEER analysis of endothelial barrier function; assay type: cell-based, human; settings: Iloprost 200 nM; HDL-S1P 100 nM S1P; AUY954 1 μM
Description: Transendothelial Electrical Resistance (TEER) was performed on HUVEC as described previously (Swendeman et al, 2017). Essentially, HUVECs were maintained in HUVEC Growth Medium (HGM; M199 medium supplemented with 10% FCS (Corning), 1:100 Pen-Strep (Sigma), 8 mM Glutamine (Sigma), Heparin (Sigma, 100 U, LMW) and Sheep Brain Extract prepared (REF). All cultures were maintained on Fibrobronectin (2 μg/ml) coated plates. For TEER analysis a 96 well ECIS system (96W10idf PET array, Applied BioPhysics) was employed. Wells were coated with Fibronectin (2 μg/ml) resuspended in saline for 30 minutes at room temp. HUVECs were harvested, resuspended in HGM at a cell density of 25-30×10^3 cells/well and allowed to adhere overnight. Prior to analysis, culture media was removed and replaced with M199 media supplemented with Pen-Strep/Glutamine and 1% FCS for 30 minutes. For stimulation studies, either Iloprost (Cayman Biochemicals) or Iloprost loaded onto ApoA1 or ApoA1-ApoM chaperones, or S1P prepared on ApoA1-ApoM or ApoM-Fc chaperones were added to cultures and TEER studies were performed from 3-24 hours.

[3] = tested on: NF-κB; test: TNFα-induced NF-κB luciferase reporter assay in HMEC; assay type: cell-based, human
Description: TNFα-dependent NF-κB signaling was determined by using an NFκB-Luciferase based reporter assay system (pGL4.32[luc2P/NF-κB-RE/Hygro]; Promega). A stable NFκB reporter cell line in human microvascular endothelial cells (HMEC-1; ATCC) was created. HMEC were maintained in 10% FCS/Pen-Strep MCDB media supplemented with 2 mM L-Glutamine (Sigma), EGF (2 ng/ml; R&D systems) and Hydrocortisone (1 ng/ml; Sigma). […] The 5×10^5 reporter cells were distributed to 12 well plates and allowed to adhere for 24 hours. Media was replaced with MCDB media supplemented with 1% FCS, L-Glutamine. […] Samples were extracted using cell lysis buffers (Promega), luciferin substrate was added and the plates were measured for […] at 470 nm for 8-15 minutes in a SpectraMax L 96-well plate reader (Molecular Devices).

CC#CCC(C)[C@H](O)/C=C/[C@@H]1[C@H]2C/C(=C/CCCC(=O)O)C[C@H]2C[C@H]1O (stereo partly shown) [Iloprost]
EC50 [1]: ~11 nM

O=C(O)CCNCc1ccc2sc(-c3ccc(-c4ccccc4)c(C(F)(F)F)c3)cc2c1 [AUY954, reference compound]
endothelial barrier function in combination with Iloprost [2]: additive manner

ApoA1: Purified Human ApoA1 (Sigma) [reference compound]
inhibition of TNFα-induced NF-κB activity at higher doses ([3]; 100-400 μg/ml, bi-phasic dose-response): not as inhibitory | inhibition of TNFα-induced NF-κB activity ([3]; low doses 25-50 μg/ml): ~25%
